Series [1] can be described thus: Selectivity index, ratio of CC50 for human THP-1 cells to EC50 for bloodstream form Trypanosoma brucei. Conditions: read-out: Ratio CC50/EC50. The series is classed as toxicity.
Series [2] has as its target T1, Pteridine reductase 1 (Leishmania major, UniProt Q01782).
T1 sequence (Q01782 whole entry): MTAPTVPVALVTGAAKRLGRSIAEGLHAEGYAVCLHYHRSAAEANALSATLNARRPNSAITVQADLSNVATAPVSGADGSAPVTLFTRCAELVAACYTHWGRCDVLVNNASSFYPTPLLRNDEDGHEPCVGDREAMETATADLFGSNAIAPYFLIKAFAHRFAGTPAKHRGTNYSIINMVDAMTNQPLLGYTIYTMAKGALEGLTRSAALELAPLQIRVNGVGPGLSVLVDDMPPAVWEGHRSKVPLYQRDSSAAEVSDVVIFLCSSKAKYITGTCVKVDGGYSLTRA
As to the kind of experiment: Inhibition of N-terminal his 6 tagged recombinant Leishmania major PTR1 expressed in Escherichia coli BL21 (DE3) cells preincubated for 10 mins followed by NADPH addition and measured after 10 to 50 mins by multilabel plate reader method.

Series [3] can be described thus: Tmax in BALB/c mouse at 20 mg/kg, po measured upto 24 hrs by LC-MS/MS analysis. Format: ADME, organism-based. Particulars: in vivo.
A short description of series [4]: Cmax in BALB/c mouse at 20 mg/kg, po measured upto 24 hrs by LC-MS/MS analysis. The series is classed as ADME, organism-based. Particulars: in vivo.
Series [5] in a line: AUC last in BALB/c mouse at 20 mg/kg, po measured upto 24 hrs by LC-MS/MS analysis. Particulars: in vivo. The series is classed as ADME, organism-based.
Series [6] concerns Leishmania infantum. As to the kind of experiment: Antiparasitic activity against Leishmania infantum intracellular amastigotes MHOM/BR/1972/BH46 infected in human THP-1 cells assessed as inhibition of parasitic growth at 50 uM pre-infected for 24 hrs followed by compound addition and measured after 48 hrs relative to control. Format: functional. Particulars: MHOM/BR/1972/BH46, THP-1.

Series [7] deals with Trypanosoma brucei. Briefly: Antiparasitic activity against blood stream form Trypanosoma brucei assessed as parasitic growth inhibition incubated for 72 hrs by resazurin dye based fluorescence analysis. Format: functional, organism-based. For orientation: The colour change of resazurin is a common sign of viable cells or microbes.
A short description of series [8]: Half life in BALB/c mouse at 20 mg/kg, po measured upto 24 hrs by LC-MS/MS analysis. Particulars: in vivo. The series is classed as ADME, organism-based.
The nature of series [9]: Inhibition of N-terminal his 6 tagged recombinant Trypanosoma brucei PTR1 expressed in Escherichia coli BL21 (DE3) cells preincubated for 10 mins followed by NADPH addition and measured after 10 to 50 mins by multilabel plate reader method. Format: cell-based.
For series [10], the system named is THP-1. As to the kind of experiment: Cytotoxicity against human THP-1 cells assessed as reduction in cell viability measured after 72 hrs by MTT assay. Format: functional.
Series [11] relates to Trypanosoma brucei. As to the kind of experiment: Antiparasitic activity against blood stream form Trypanosoma brucei assessed as parasitic growth inhibition at 10 uM incubated for 72 hrs by resazurin dye based fluorescence analysis relative to control. The series is classed as functional. Set-up: scale not given: the % may be the effect or the level left.

Consider `Nc1nc(N)c(C(C[N+](=O)[O-])c2ccc3c(c2)OCCO3)c(N)n1` (stereo not given), for which, in [1], the selectivity ratio worked out at 11. The IC50 (as a rule, the concentration at which inhibition is half-maximal) in series [2] was 2500 nM; in series [9] it was 230 nM. The time of peak concentration (Tmax) (commonly the time from dosing to the highest level) in series [3] is 1 h. The Cmax (usually the peak of the concentration-time curve) in series [4] was found to be 25 ng/mL. In [5], the exposure AUC(0-t) (as a rule, exposure summed from dosing to a finite time, without extrapolation to infinity) at 24 h came out at 107 ng·h/mL. In addition, in [6], the inhibition – broadly, how much of the control response was suppressed – at 50 µM stood at 54.4%. Further, the 50% effective concentration (EC50) (in general, the concentration that produces a half-maximal response) in series [7] came out at 1110 nM. Moreover, the half-life (in general, the time in which the quantity being followed falls by half) in series [8] was 4.5 h. The 50% cytotoxic concentration (CC50) (usually the concentration giving 50% cytotoxicity) in series [10] amounted to 12500 nM.

For `Nc1nc(N)c(C(C[N+](=O)[O-])c2ccc(OCc3ccc(Cl)c(Cl)c3)cc2)c(N)n1` (stereo not given), the selectivity ratio in series [1] is 147. The IC50 was 49700 nM in series [2] and 220 nM in series [9]. Besides, in series [3], the Tmax worked out at 2 h. Moreover, the Cmax in series [4] amounted to 63 ng/mL. The AUC(0-t) at 24 h in [5] was 435 ng·h/mL. In addition, in series [6], the inhibition at 50 µM came out at 11.4%. For the same compound, in [7], the EC50 turned out to be 340 nM. This compound also gave a half-life in series [8] of 3 h. For the same compound, the CC50 in series [10] was 50000 nM.

With `Nc1cc(N)nc(N)n1`, the IC50 came to 4010 nM in series [2] and 2380 nM in [9].

As for `Nc1nc(N)c(C(C[N+](=O)[O-])c2cccc(Br)c2)c(N)n1` (stereo not given), in series [1], the selectivity ratio amounted to 118. The IC50 in series [2] amounted to 58100 nM; in series [9], 50 nM. The inhibition at 50 µM in series [6] is 30.2%. The EC50 in series [7] worked out at 650 nM. Also, the CC50 in [10] is 50000 nM.

`CCc1nc(N)nc(N)c1-c1ccc(Cl)cc1` [PYRIMETHAMINE]: the half-maximal inhibitory concentration (IC50) in series [9] stood at 90 nM.

Take `Nc1nc(N)c(C(C[N+](=O)[O-])c2cccc([N+](=O)[O-])c2)c(N)n1` (stereo not given): the selectivity ratio in series [1] is 42. For the same compound, the values for the half-maximal inhibitory concentration (IC50) in series [2] and in series [9] were 63400 nM and below 100 nM, respectively. In addition, in [6], the inhibition at 50 µM turned out to be 74.2%. In addition, in [7], the concentration giving a half-maximal response (EC50) was determined as 1190 nM. In [10], the CC50 is 50000 nM.

As for `COc1cccc(OC)c1C(C[N+](=O)[O-])c1c(N)nc(N)nc1N` (stereo not given), in series [1], the selectivity ratio was 7. The figures for the concentration for half-maximal inhibition (IC50) in series [2] and in series [9] were 70700 nM and 130 nM, respectively. In [6], the inhibition at 50 µM came to 79.8%. Moreover, in series [7], the EC50 is 1680 nM. For the same compound, the cytotoxic concentration (CC50) in [10] was 12500 nM.

With `CCCCCCCCCCCCCCCCOP(=O)([O-])OCC[N+](C)(C)C` [MILTEFOSINE], the inhibition at 50 µM in series [6] worked out at 1.29%.

On to `Nc1nc(N)c(C(C[N+](=O)[O-])c2ccco2)c(N)n1` (stereo not given), for which the selectivity ratio in series [1] stood at 10. The results for the IC50 in series [2] and in [9] were 63800 nM and 160 nM, respectively. Also, the EC50 in [7] came to 5050 nM. Moreover, the CC50 in series [10] came out at 50000 nM.

For the compound `Nc1nc(N)c(C(C[N+](=O)[O-])c2c[nH]c3ccccc23)c(N)n1` (stereo not given), the Activity in series [11] was 28%. Also, the 50% inhibitory concentration (IC50) in [2] was 13900 nM; in series [9] it was below 100 nM. In series [6], the inhibition at 50 µM worked out at 4%.

With `Nc1nc(N)c(C(C[N+](=O)[O-])c2ccc(Cl)cc2)c(N)n1` (stereo not given), in series [1], the selectivity ratio was 19. Moreover, in [7], the EC50 worked out at 1280 nM. Besides, in series [9], the IC50 was below 100 nM. Also, the CC50 in [10] was found to be 25000 nM.

Turning to `Nc1nc(N)c(C(C[N+](=O)[O-])c2cccs2)c(N)n1` (stereo not given), the selectivity ratio in series [1] is 15. For the same compound, the IC50 in [2] was 4900 nM; in series [9] it was 190 nM. Also, the inhibition at 50 µM in [6] came to 22.5%. Besides, the half-maximal effective concentration (EC50) in [7] is 3330 nM. In addition, the CC50 in series [10] was found to be 50000 nM.

For the compound `COc1ccc(C(C[N+](=O)[O-])c2c(N)nc(N)nc2N)cc1OC` (stereo not given), in [1], the selectivity ratio was determined as 11. Moreover, the results for the IC50 in series [2] and in series [9] were 2400 nM and 120 nM, respectively. The inhibition at 50 µM in series [6] is 62.4%. For the same compound, the 50% effective concentration (EC50) in series [7] amounted to 2330 nM. The CC50 in [10] came out at 25000 nM.

Consider `Nc1nc(N)c(C(C[N+](=O)[O-])c2ccc(Br)cc2)c(N)n1` (stereo not given), for which the selectivity ratio in series [1] amounted to 16. The results for the IC50 in series [2] and in [9] were 64100 nM and below 100 nM, respectively. Besides, in series [6], the inhibition at 50 µM was determined as 83.4%. Moreover, the EC50 in series [7] was 1590 nM. Besides, in series [10], the CC50 was found to be 25000 nM.

Turning to `Nc1nc(N)c(C(C[N+](=O)[O-])c2ccccc2OCc2ccccc2[N+](=O)[O-])c(N)n1` (stereo not given), the Activity in series [11] was 48%. The IC50 in series [2] worked out at 46200 nM; in series [9], 260 nM. In series [6], the inhibition at 50 µM stood at 11.7%.

As for `Nc1nc(N)c(C(C[N+](=O)[O-])c2ccc3c(c2)OCO3)c(N)n1` (stereo not given), in series [1], the selectivity ratio worked out at 50. Further, the EC50 in series [7] came out at 500 nM. Further, in [9], the half-maximal inhibitory concentration (IC50) came out at 250 nM. Besides, the CC50 in series [10] turned out to be 25000 nM.

As to `Nc1nc(N)c(C(C[N+](=O)[O-])c2ccc(Cl)c(Cl)c2)c(N)n1` (stereo not given), the selectivity ratio in series [1] was 31. In addition, the IC50 in [2] was determined as 60200 nM; in series [9], 150 nM. The inhibition at 50 µM in series [6] worked out at 53.9%. For the same compound, the EC50 in [7] was 820 nM. In addition, in series [10], the CC50 came to 25000 nM.

As for `Nc1nc(N)c(C(C[N+](=O)[O-])c2ccccc2OCc2ccccc2)c(N)n1` (stereo not given), the selectivity ratio in series [1] is above 167. For the same compound, the IC50 came out at 51300 nM in series [2] and 240 nM in series [9]. The inhibition at 50 µM in [6] came to 81.1%. Further, the EC50 in series [7] stood at 600 nM. Also, the CC50 in series [10] is above 100000 nM.

Turning to `Nc1nc(N)c(C(C[N+](=O)[O-])c2ccc3c(c2)CCO3)c(N)n1` (stereo not given), the selectivity ratio in series [1] amounted to 11. Also, the figures for the IC50 in [2] and in series [9] were 21300 nM and 390 nM, respectively. Moreover, the inhibition at 50 µM in [6] was 21.1%. For the same compound, in series [7], the EC50 is 4400 nM. In addition, the CC50 in series [10] was found to be 50000 nM.

On to `Cc1ccc(C(C[N+](=O)[O-])c2c(N)nc(N)nc2N)s1` (stereo not given), for which the selectivity ratio in series [1] amounted to 42. Moreover, the inhibition at 50 µM in series [6] worked out at 15.4%. Moreover, the EC50 in [7] was found to be 2410 nM. Moreover, the IC50 in series [9] is 390 nM. In series [10], the CC50 came out at 100000 nM.

Turning to `COc1cc(C(C[N+](=O)[O-])c2c(N)nc(N)nc2N)ccc1O` (stereo not given), in series [1], the selectivity ratio is 23. For the same compound, the figures for the IC50 in [2] and in series [9] were 19800 nM and 70 nM, respectively. Further, the inhibition at 50 µM in [6] stood at 21.6%. For the same compound, the EC50 in series [7] was 2130 nM. Also, the CC50 in series [10] turned out to be 50000 nM.

`Nc1nc(N)c(C(C[N+](=O)[O-])c2ccccc2OCc2cccc(Cl)c2)c(N)n1` (stereo not given): the selectivity ratio in [1] was 31. Also, the values for the IC50 in series [2] and in series [9] were 51300 nM and 600 nM, respectively. In addition, the time of peak concentration (Tmax) in series [3] was 0.5 h. In series [4], this compound returned a maximum concentration (Cmax) of 446 ng/mL. In addition, the AUC(0-t) at 24 h in series [5] came out at 1820 ng·h/mL. The inhibition at 50 µM in series [6] came to 61%. Moreover, in series [7], the EC50 came to 400 nM. In series [8], this compound had a half-life of 2.4 h. In addition, the CC50 in [10] worked out at 12500 nM.

With `Nc1nc(N)c(C(C[N+](=O)[O-])c2cccc3c2OCO3)c(N)n1` (stereo not given), the selectivity ratio in series [1] was 10. Further, the figures for the IC50 in series [2] and in series [9] were 47600 nM and 30 nM, respectively. Moreover, in series [3], the Tmax came to 0.5 h. In series [4], this compound had a Cmax of 399 ng/mL. The compound further registered an AUC(0-t) at 24 h in series [5] of 2700 ng·h/mL. Moreover, the inhibition at 50 µM in series [6] was 36%. The EC50 in [7] is 1210 nM. In series [8], this compound had a half-life of 2.1 h. The CC50 in series [10] is 12500 nM.
